The values below come from ChEMBL document CHEMBL4177535 (Bioorg Med Chem Lett, 2017).

Experiment [1] relates to Human immunodeficiency virus 1. Kind of experiment: Antiviral activity against R5 tropic HIV-1 BAL infected in human PBL assessed as reduction in Agp24 level at 100 uM measured after 3 days by ELISA relative to control. The class given is functional. More on the design: scale not given: the % may be the effect or the level left.
For experiment [2], the target named is Rap guanine nucleotide exchange factor 3 (Homo sapiens, UniProt O95398). Kind of experiment: Activation of EPAC1 DEP1 deletion mutant (unknown origin) expressed in mouse NIH-3T3-A14 cells assessed as increase in Rap1b- fluorescent nucleotide methylontraniloyl-GDP nucleotide exchange by fluorescence assay. The class given is cell-based.

Structures are written as SMILES.

Usually EC50 stands for the midpoint of the concentration-response curve.

Rap guanine nucleotide exchange factor 3, sequence (O95398 whole entry, looked up): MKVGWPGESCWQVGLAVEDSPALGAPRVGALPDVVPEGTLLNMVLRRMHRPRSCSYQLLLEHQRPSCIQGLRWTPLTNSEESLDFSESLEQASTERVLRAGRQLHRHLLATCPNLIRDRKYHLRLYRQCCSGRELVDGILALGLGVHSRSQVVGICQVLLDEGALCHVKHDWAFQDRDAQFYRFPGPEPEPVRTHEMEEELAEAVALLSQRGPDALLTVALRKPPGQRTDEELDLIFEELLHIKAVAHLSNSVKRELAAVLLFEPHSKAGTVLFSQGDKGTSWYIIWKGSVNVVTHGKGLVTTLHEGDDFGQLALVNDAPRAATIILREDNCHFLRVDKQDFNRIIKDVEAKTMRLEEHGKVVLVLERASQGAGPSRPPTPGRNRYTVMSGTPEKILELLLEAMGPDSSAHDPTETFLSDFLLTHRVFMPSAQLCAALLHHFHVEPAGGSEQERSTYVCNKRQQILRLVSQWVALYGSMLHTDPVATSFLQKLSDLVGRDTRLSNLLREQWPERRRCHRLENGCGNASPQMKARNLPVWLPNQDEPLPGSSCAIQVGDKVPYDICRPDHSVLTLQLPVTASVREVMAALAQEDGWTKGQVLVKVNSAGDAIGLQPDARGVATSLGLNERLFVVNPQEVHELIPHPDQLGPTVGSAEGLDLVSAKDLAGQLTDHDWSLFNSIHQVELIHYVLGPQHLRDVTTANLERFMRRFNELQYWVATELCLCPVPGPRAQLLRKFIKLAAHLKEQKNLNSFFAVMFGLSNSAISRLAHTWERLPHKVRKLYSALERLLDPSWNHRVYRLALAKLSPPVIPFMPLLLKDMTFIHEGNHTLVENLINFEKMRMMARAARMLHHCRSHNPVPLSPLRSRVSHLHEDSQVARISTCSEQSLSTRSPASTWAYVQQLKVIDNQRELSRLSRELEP

In the case of `CO[C@@H]1[C@@H]2OP(=O)(O)OC[C@H]2O[C@H]1n1c(Sc2ccc(Cl)cc2)nc2c(N)ncnc21`, in experiment [1], the Activity came out at 40%. The concentration for a half-maximal effect (EC50) in experiment [2] stood at 2200 nM.
